Results: the supplement of paper PMC10307832

Columns and labels:
Assay in all cases: relative viability (nuclei count vs DMSO), 5 days (fraction); higher = more cells survive
A-427 = tested on: A-427
How it was run: (§1)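 Relative viability divides the nuclei count in treated wells by that in vehicle wells. Lung cancer cell lines were seeded in 1536-well plates, dosed by pin tool the next day, and fixed and stained after 5 days in one step with final 0.05% Triton X-100, 1% formaldehyde and 1 ug/ml Hoechst. Dosing was a single drug or a fixed anchor-drug dose plus five library-drug doses (not always all listed) in √10 steps, and values are medians of duplicate plates imaged at 4×.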

COR-L 105 = tested on: COR-L 105
How it was run: as §1

ChaGo-K-1 = tested on: ChaGo-K-1
How it was run: as §1

EKVX = tested on: EKVX
How it was run: as §1

EMC-BAC-2 = tested on: EMC-BAC-2
How it was run: as §1

H3255 = tested on: H3255
How it was run: as §1

HCC-366 = tested on: HCC-366
How it was run: as §1

LOU-NH91 = tested on: LOU-NH91
How it was run: as §1

NCI-H1563 = tested on: NCI-H1563
How it was run: as §1

NCI-H1666 = tested on: NCI-H1666
How it was run: as §1

NCI-H1734 = tested on: NCI-H1734
How it was run: as §1

NCI-H1755 = tested on: NCI-H1755
How it was run: as §1

NCI-H1792 = tested on: NCI-H1792
How it was run: as §1

NCI-H1975 = tested on: NCI-H1975
How it was run: as §1

NCI-H23 = tested on: NCI-H23
How it was run: as §1

NCI-H441 = tested on: NCI-H441
How it was run: as §1

NCI-H520 = tested on: NCI-H520
How it was run: as §1

NCI-H596 = tested on: NCI-H596
How it was run: as §1

PC-3 [JPC-3] = tested on: PC-3 [JPC-3]
How it was run: as §1

For `O=C(O)c1ccc(-c2c[nH]c3ncc(-c4ccccc4)cc23)cc1C1CCCC1` + CC(C)C[C@H](NC(=O)[C@H](Cc1ccccc1)NC(=O)c1cnccn1)B(O)O [Bortezomib] (partner 0.002 µM), the relative viability (A-427; first compound 0.04 µM) was 0.947, the relative viability (A-427; first compound 0.1265 µM) was 0.949 and the relative viability (A-427; first compound 0.4 µM) was 1.07. It also gave a relative viability (A-427; first compound 1.265 µM) of 0.849, a relative viability (COR-L 105; first compound 0.04 µM) of 0.775 and a relative viability (COR-L 105; first compound 0.1265 µM) of 0.78. The relative viability (COR-L 105; first compound 0.4 µM) was 0.788, the relative viability (COR-L 105; first compound 1.265 µM) was 0.819 and the relative viability (ChaGo-K-1; first compound 0.04 µM) was 1.08. For the same molecule, the relative viability (ChaGo-K-1; first compound 0.1265 µM) was 1.16, the relative viability (ChaGo-K-1; first compound 0.4 µM) was 0.917 and the relative viability (ChaGo-K-1; first compound 1.265 µM) was 1.21. The relative viability (EKVX; first compound 0.04 µM) was 1.01, the relative viability (EKVX; first compound 0.1265 µM) was 0.873 and the relative viability (EKVX; first compound 0.4 µM) was 1.03. It also gave a relative viability (EKVX; first compound 1.265 µM) of 0.728, a relative viability (EMC-BAC-2; first compound 0.04 µM) of 1.02 and a relative viability (EMC-BAC-2; first compound 0.1265 µM) of 1.16. It also gave a relative viability (EMC-BAC-2; first compound 0.4 µM) of 1.02, a relative viability (EMC-BAC-2; first compound 1.265 µM) of 1.04 and a relative viability (H3255; first compound 0.04 µM) of 1.12. For the same molecule, the relative viability (H3255; first compound 0.1265 µM) was 0.972, the relative viability (H3255; first compound 0.4 µM) was 0.833 and the relative viability (H3255; first compound 1.265 µM) was 0.732. The relative viability (HCC-366; first compound 0.04 µM) was 1.05, the relative viability (HCC-366; first compound 0.1265 µM) was 1.12 and the relative viability (HCC-366; first compound 0.4 µM) was 1.03. The relative viability (HCC-366; first compound 1.265 µM) was 1.06, the relative viability (LOU-NH91; first compound 0.04 µM) was 0.484 and the relative viability (LOU-NH91; first compound 0.1265 µM) was 0.558. The relative viability (LOU-NH91; first compound 0.4 µM) was 0.449, the relative viability (LOU-NH91; first compound 1.265 µM) was 0.396 and the relative viability (NCI-H1563; first compound 0.04 µM) was 0.832. For the same molecule, the relative viability (NCI-H1563; first compound 0.1265 µM) was 0.869, the relative viability (NCI-H1563; first compound 0.4 µM) was 0.907 and the relative viability (NCI-H1563; first compound 1.265 µM) was 0.931. It also gave a relative viability (NCI-H1666; first compound 0.04 µM) of 0.86, a relative viability (NCI-H1666; first compound 0.1265 µM) of 0.813 and a relative viability (NCI-H1666; first compound 0.4 µM) of 0.739. For the same molecule, the relative viability (NCI-H1666; first compound 1.265 µM) was 0.304, the relative viability (NCI-H1734; first compound 0.04 µM) was 1.1 and the relative viability (NCI-H1734; first compound 0.1265 µM) was 1.02. The relative viability (NCI-H1734; first compound 0.4 µM) was 0.83, the relative viability (NCI-H1734; first compound 1.265 µM) was 0.785 and the relative viability (NCI-H1755; first compound 0.04 µM) was 1.01. It also gave a relative viability (NCI-H1755; first compound 0.1265 µM) of 0.732, a relative viability (NCI-H1755; first compound 0.4 µM) of 0.997 and a relative viability (NCI-H1755; first compound 1.265 µM) of 0.924. It also gave a relative viability (NCI-H1792; first compound 0.04 µM) of 0.933, a relative viability (NCI-H1792; first compound 0.1265 µM) of 1.13 and a relative viability (NCI-H1792; first compound 0.4 µM) of 1.04. It also gave a relative viability (NCI-H1792; first compound 1.265 µM) of 0.912, a relative viability (NCI-H1975; first compound 0.04 µM) of 0.344 and a relative viability (NCI-H1975; first compound 0.1265 µM) of 0.391. The relative viability (NCI-H1975; first compound 0.4 µM) was 0.335, the relative viability (NCI-H1975; first compound 1.265 µM) was 0.195 and the relative viability (NCI-H23; first compound 0.04 µM) was 1.05. For the same molecule, the relative viability (NCI-H23; first compound 0.1265 µM) was 1.21, the relative viability (NCI-H23; first compound 0.4 µM) was 0.958 and the relative viability (NCI-H23; first compound 1.265 µM) was 1.11. It also gave a relative viability (NCI-H441; first compound 0.04 µM) of 0.587, a relative viability (NCI-H441; first compound 0.1265 µM) of 0.59 and a relative viability (NCI-H441; first compound 0.4 µM) of 0.246. For the same molecule, the relative viability (NCI-H441; first compound 1.265 µM) was 0.289, the relative viability (NCI-H520; first compound 0.04 µM) was 0.567 and the relative viability (NCI-H520; first compound 0.1265 µM) was 0.717. It also gave a relative viability (NCI-H520; first compound 0.4 µM) of 0.482, a relative viability (NCI-H520; first compound 1.265 µM) of 0.327 and a relative viability (NCI-H596; first compound 0.04 µM) of 0.935. For the same molecule, the relative viability (NCI-H596; first compound 0.1265 µM) was 0.982, the relative viability (NCI-H596; first compound 0.4 µM) was 1.02 and the relative viability (NCI-H596; first compound 1.265 µM) was 1.06. For the same molecule, the relative viability (PC-3 [JPC-3]; first compound 0.04 µM) was 0.832, the relative viability (PC-3 [JPC-3]; first compound 0.1265 µM) was 0.921 and the relative viability (PC-3 [JPC-3]; first compound 0.4 µM) was 0.9. It also gave a relative viability (PC-3 [JPC-3]; first compound 1.265 µM) of 0.759.
